Laboratory results reported in US7799788B2, “Method of treating chronic myelogenous leukemia cells” (University of South Florida, priority 2006, dated 2010).

Experiments:
K562 cells = assay: Apoptosis by Annexin-V staining (flow cytometry), K562 cells; type: cell-based, human; conditions: 10 nM dasatinib, 48 hours
Protocol: Untreated or drug-treated cells were stained with Annexin-V (Pharmingen, San Diego, Calif.) and propidium iodide (PI) and the percentage of apoptotic cells were determined by flow cytometry. […] The percentage of apoptotic cells was determined by flow cytometry. The combination index (CI) for each drug combination was obtained by median dose effect of Chou and Talalay utilizing the combination index equation within the commercially available software Calcusyn (Biosoft, Ferguson, Mo.).

LAMA-84 cells = assay: Apoptosis by Annexin-V staining (flow cytometry), LAMA-84 cells; type: cell-based, human; conditions: 10 nM dasatinib, 48 hours
Protocol: FIG. 1D. […] Following treatment, the percentages of annexin-V-stained apoptotic cells were measured by flow cytometry. Values represent the mean of three experiments±S.E.M.
Bcr-Abl-expressing, CML LAMA-84 and K562 cells were obtained and maintained in culture, as previously described. […] Following these treatments, cells or cell pellets were washed free of the drug(s) prior to the performance of the studies.

[1] = test system: normal bone marrow progenitor cells (NBMC's); assay: Loss of survival of normal bone marrow progenitor cells; type: cell-based
[2] = test system: primary IM-resistant CML cells; assay: Percentage non-viable cells by trypan blue uptake, primary IM-resistant CML-BC cells; type: cell-based, human; conditions: 48 hours
Protocol: FIG. 6. […] Following this, the percentages of non-viable cells for each drug alone or drug combination were determined by trypan blue uptake in hemocytometer. Values represent the percentage of non-viable cells from each condition as compared to untreated cells.
Primary CML cells. CML cells from the peripheral blood and/or bone marrow of eleven patients who had met the clinical criteria of IM-resistant advanced phase of CML were harvested and purified, as previously described. Informed consents were signed by all patients to allow use of their cells for these experiments, as part of a clinical protocol approved by the University of South Florida Institutional Review Board (IRB).
Cells were stained with trypan blue (Sigma, St. Louis, Mo.).

BaF3/Bcr-AblE255K cells = assay: Apoptosis by Annexin-V staining, BaF3/Bcr-AblE255K cells; conditions: 2.0 μM vorinostat, 48 hours
Protocol: After treatment, the percentage of Annexin-V-stained apoptotic cells was determined by flow cytometry.
BaF3/Bcr-Abl, BaF3/Bcr-AblE255K, and BaF3/Bcr-AblT315I cells were treated with the indicated concentrations of vorinostat for 48 hours. After treatment, the percentage of Annexin-V-stained apoptotic cells was determined by flow cytometry.
Following treatment, the percentage of annexin-V-stained apoptotic cells was determined by flow cytometry.
Stably expressing cells were then further selected by removal of IL-3.
Untreated or drug-treated cells were stained with Annexin-V (Pharmingen, San Diego, Calif.) and propidium iodide (PI) and the percentage of apoptotic cells were determined by flow cytometry. […] The percentage of apoptotic cells was determined by flow cytometry.

Cc1nc(Nc2ncc(C(=O)Nc3c(C)cccc3Cl)s2)cc(N2CCN(CCO)CC2)n1 [dasatinib, N-(2-chloro-6-methylphenyl)-2-[[6-[4-(2-hydroxyethyl)-1-piperazinyl]-2-methyl-4-pyrimidinyl]amino]-5-thiazolecarboxamide]
apoptosis of K562 cells (K562 cells): ~50% | apoptosis of LAMA-84 cells (LAMA-84 cells): approximately 90% | effect on NBMC ([1]; dasatinib up to 20 nM): no effect | loss of cell viability, samples #1 to #9 ([2]; IM-resistant primary CML cells, mutational status not determined): induced loss of cell viability in a dose dependent manner

O=C(CCCCCCC(=O)Nc1ccccc1)NO [vorinostat, suberoylanilide hydroxamic acid]
loss of survival of NBMC ([1]; 2.0 μM vorinostat, mean of 2 samples): 15.9% | loss of cell viability, all samples including #10 and #11 ([2]; 2.0 μM vorinostat alone): induced loss of cell viability in all of the samples | apoptosis of BaF3/Bcr-AblE255K cells (BaF3/Bcr-AblE255K cells): approximately 40%
